The values that follow come from ChEMBL document CHEMBL5357068, “Discovery of Novel TLR7 Agonists as Systemic Agent for Combination With aPD1 for Use in Immuno-oncology” (ACS Med Chem Lett, 2024).

A short description of data set [1]: Metabolic stability in mouse liver microsomes assessed as compound remaining. Further: time not given here. Type of data set: ADME, Microsome.
Data set [2] can be described thus: Metabolic stability in human liver microsomes assessed as compound remaining. Further: time not given here. Type of data set: ADME, Microsome. For orientation: Microsomes from liver hold many membrane-bound enzymes, among them those of drug oxidation.
Data set [3] addresses Voltage-gated inwardly rectifying potassium channel KCNH2 (Homo sapiens, UniProt Q12809). Put plainly: Inhibition of hERG by patch clamp assay. Type of data set: toxicity. A general note: The hERG channel carries a current that helps repolarise heart muscle cells.
The nature of the next data set: in vitro. Particulars: PHA-activated T cells.
For data set [4], the target named is T1, Toll-like receptor 7 (Mus musculus, UniProt P58681).
T1 sequence (P58681 whole entry): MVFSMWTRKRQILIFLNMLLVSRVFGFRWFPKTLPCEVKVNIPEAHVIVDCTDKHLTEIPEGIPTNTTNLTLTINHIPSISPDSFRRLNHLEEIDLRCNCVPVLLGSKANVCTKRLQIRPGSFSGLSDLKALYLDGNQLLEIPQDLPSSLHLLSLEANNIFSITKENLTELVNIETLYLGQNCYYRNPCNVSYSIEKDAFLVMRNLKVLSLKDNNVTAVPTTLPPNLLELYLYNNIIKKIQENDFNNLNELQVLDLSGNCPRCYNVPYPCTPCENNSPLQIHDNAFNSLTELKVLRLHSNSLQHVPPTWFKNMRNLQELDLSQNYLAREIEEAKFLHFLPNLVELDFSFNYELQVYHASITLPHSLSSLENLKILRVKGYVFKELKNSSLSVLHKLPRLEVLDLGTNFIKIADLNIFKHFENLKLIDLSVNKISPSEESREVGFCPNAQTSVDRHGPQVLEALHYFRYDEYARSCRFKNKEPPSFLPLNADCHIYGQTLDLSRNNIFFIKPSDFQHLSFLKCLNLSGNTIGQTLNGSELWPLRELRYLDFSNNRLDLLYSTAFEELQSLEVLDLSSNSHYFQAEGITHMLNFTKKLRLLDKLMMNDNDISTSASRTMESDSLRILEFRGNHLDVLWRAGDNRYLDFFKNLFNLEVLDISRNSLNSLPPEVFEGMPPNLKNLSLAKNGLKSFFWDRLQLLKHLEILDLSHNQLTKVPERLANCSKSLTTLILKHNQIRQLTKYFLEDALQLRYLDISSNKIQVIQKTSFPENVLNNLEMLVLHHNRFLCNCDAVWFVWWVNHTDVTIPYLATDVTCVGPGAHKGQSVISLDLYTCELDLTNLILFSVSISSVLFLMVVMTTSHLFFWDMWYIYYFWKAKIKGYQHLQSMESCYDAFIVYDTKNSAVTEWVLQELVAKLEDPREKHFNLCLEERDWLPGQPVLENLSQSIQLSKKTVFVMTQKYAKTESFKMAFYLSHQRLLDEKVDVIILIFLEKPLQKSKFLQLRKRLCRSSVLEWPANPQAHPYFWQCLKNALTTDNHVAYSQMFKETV

Data set [5] addresses T2, Toll-like receptor 7 (Homo sapiens, UniProt Q9NYK1).
T2 sequence (Q9NYK1 whole entry): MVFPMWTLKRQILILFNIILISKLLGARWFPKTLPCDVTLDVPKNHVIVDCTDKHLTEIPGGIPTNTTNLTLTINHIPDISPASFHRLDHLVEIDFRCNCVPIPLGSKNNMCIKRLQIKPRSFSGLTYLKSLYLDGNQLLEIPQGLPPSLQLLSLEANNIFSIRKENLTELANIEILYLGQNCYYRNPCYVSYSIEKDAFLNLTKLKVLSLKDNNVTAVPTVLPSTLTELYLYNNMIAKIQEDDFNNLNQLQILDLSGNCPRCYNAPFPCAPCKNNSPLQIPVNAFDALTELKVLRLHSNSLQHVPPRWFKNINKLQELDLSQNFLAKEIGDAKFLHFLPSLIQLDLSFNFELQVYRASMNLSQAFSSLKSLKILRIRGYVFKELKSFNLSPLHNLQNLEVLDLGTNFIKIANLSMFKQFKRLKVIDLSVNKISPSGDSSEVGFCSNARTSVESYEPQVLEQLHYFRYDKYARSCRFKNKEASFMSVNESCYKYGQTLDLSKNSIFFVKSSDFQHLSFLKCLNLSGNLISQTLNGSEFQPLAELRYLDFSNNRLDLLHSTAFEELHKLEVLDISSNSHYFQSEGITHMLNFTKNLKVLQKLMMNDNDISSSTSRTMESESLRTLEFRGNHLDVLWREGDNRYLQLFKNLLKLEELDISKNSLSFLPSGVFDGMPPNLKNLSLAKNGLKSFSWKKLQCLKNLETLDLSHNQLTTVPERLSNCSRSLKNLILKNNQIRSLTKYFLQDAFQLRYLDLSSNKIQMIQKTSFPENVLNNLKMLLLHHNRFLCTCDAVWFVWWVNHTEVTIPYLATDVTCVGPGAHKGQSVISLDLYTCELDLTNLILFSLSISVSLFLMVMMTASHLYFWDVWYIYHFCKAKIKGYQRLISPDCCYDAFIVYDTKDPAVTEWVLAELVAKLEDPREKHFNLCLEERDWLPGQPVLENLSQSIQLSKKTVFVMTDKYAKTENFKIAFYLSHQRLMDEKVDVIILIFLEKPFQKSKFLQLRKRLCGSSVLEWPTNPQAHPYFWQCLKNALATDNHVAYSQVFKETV

By IC50 is commonly meant the concentration needed to halve the response being measured. Lower therefore signals greater potency in that assay. A word on the EC50: it is the concentration that produces a half-maximal response.

Voltage-gated inwardly rectifying potassium channel KCNH2, sequence (Q12809 whole entry): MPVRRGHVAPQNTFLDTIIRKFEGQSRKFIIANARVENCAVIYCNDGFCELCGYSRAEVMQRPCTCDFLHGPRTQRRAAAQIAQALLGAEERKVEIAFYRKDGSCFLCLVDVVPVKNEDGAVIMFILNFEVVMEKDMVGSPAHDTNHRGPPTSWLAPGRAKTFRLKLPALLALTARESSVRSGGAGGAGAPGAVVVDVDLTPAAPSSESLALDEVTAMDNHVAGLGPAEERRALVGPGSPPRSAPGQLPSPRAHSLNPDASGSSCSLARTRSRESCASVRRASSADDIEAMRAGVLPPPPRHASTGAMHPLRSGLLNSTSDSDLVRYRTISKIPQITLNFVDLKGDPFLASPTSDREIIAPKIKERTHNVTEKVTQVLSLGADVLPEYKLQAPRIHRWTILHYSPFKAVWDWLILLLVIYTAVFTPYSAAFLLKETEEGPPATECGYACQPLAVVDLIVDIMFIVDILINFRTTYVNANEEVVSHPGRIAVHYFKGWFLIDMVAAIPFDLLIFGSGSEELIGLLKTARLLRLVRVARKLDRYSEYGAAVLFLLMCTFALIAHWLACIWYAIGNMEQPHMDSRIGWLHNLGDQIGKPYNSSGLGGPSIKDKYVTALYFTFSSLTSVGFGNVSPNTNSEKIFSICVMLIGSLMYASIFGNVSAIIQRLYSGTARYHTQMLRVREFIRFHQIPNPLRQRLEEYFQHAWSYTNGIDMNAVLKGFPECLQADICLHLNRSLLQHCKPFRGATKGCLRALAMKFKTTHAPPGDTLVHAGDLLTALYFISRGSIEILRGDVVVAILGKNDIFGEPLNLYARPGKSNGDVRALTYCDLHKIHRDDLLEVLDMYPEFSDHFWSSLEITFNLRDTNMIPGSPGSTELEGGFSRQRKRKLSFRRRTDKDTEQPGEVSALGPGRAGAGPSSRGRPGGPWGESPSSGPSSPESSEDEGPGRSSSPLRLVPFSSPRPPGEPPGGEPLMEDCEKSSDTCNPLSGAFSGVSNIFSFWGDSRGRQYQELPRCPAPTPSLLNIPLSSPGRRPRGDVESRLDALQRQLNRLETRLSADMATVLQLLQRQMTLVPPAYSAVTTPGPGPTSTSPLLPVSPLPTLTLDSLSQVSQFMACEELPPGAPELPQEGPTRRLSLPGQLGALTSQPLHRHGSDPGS

As for `CCCCNc1nc(N)nc2cnn(Cc3ccc(CNCc4ccncc4)cc3OC)c12`, the results for the Stability in data set [1] and in data set [2] were 3% and 1%, respectively.

In the case of `CCCCNc1nc(N)nc2cnn(Cc3ccc(CN4CC5CC4CN5)cc3OC)c12` (configuration not stated), the Stability in data set [1] was 10%; in data set [2] it was 90%.

As to `CCCCNc1nc(N)nc2cnn(Cc3ccc(CN4CCOCC4)cc3OC)c12`, the Stability in data set [1] stood at 15%; in data set [2], 20%.

Regarding `COc1cc(CNC2CCOCC2)ccc1Cn1ncc2nc(N)nc(N[C@H](CCO)C(C)C)c21`, the results for the Stability in data set [1] and in data set [2] were 63% and 80%, respectively. For the same compound, the IC50 in data set [3] was more than 50 µM; in “in vitro” it was more than 25 µM.

As for `CCCCNc1nc(N)nc2cnn(Cc3ccc(C(=O)NC4CCOCC4)cc3OC)c12`, the Stability in data set [1] is on record as 62%; in data set [2], 68%.

As to `COc1cc(CNC2CCOCC2)ccc1Cn1ncc2nc(N)nc(N[C@@H](C)CCO)c21`, the values for the Stability in data set [1] and in data set [2] were 100% and 89%, respectively. In addition, the IC50 against Toll-like receptor 7 [4] is more than 5 µM; in data set [3] it was more than 50 µM; in the data set “in vitro”, more than 25 µM.

As for `CCC[C@@H](C)Nc1nc(N)nc2cnn(Cc3ccc(CNC4CCOCC4)cc3OC)c12`, the Stability in data set [1] is 30%; in data set [2], 70%. The figures for the IC50 (in data set [3]; in “in vitro”) were 30.4 µM and 24.7 µM, respectively.

As for `CCCCNc1nc(N)nc2cnn(Cc3ccc(CN4CC5(CNC5)C4)cc3OC)c12`, the Stability in data set [1] and in data set [2] was 100% each time.

For the compound `CCCCOc1nc(N)nc2cnn(Cc3ccc(CNC4CCOCC4)cc3OC)c12`, the IC50 is more than 5 µM on Toll-like receptor 7 [4] and more than 25 µM in the data set “in vitro”.

As for `CCC[C@@H](CCO)Nc1nc(N)nc2cnn(Cc3ccc(CNC4CCOCC4)cc3OC(F)F)c12`, the results for the Stability in data set [1] and in data set [2] were 55% and 51%, respectively. In addition, the IC50 amounted to 30.4 µM in data set [3] and 7 µM in the data set “in vitro”.

Consider `CCC[C@@H](CO)Nc1nc(N)nc2cnn(Cc3ccc(CNC4CCOCC4)cc3OC)c12`, for which the Stability was found to be 77% in data set [1] and 90% in data set [2]. Also, the half-inhibitory concentration (IC50) in data set [3] was more than 50 µM; in “in vitro”, more than 25 µM.

Turning to `CCC[C@@H](CCO)Nc1nc(N)nc2cnn(Cc3cnc(CNC4CCOCC4)cc3OC)c12`, the Stability in data set [1] came out at 87%; in data set [2] it was 81%. In addition, the IC50 in data set [3] is more than 50 µM; in “in vitro” it was more than 25 µM.

Turning to `CCCCNc1nc(N)nc2cnn(Cc3ccc(CNC4COC4)cc3OC)c12`, the Stability in data set [1] came out at 46%; in data set [2], 55%.

Consider `CCC[C@@H](CCNC(C)=O)Nc1nc(N)nc2cnn(Cc3ccc(CNC4CCOCC4)cc3OC)c12`, for which the Stability is 91% in data set [1] and 93% in data set [2]. In addition, in the data set “in vitro”, the IC50 was more than 25 µM.

On to `CCCCN(C)c1nc(N)nc2cnn(Cc3ccc(CNC4CCOCC4)cc3OC)c12`, for which the Stability is 11% in data set [1] and 57% in data set [2]. The figures for the half-inhibitory concentration (IC50) (on Toll-like receptor 7 [4]; in data set [3]; in “in vitro”) were more than 5 µM, more than 50 µM and more than 25 µM, respectively.

With `COc1cc(CNC2CCOCC2)ccc1Cn1ncc2nc(N)nc(N[C@H](CCO)C3CC3)c21`, the Stability in data set [1] was determined as 87%; in data set [2], 9%. Also, the half-inhibitory concentration (IC50) in data set [3] was more than 50 µM; in the data set “in vitro” it was more than 25 µM.

As to `CCC[C@@H](CCO)Nc1nc(N)nc2cnn(Cc3ncc(CNC4CCOCC4)cc3OC)c12`, the Stability is recorded as 93% in data set [1] and 78% in data set [2]. Moreover, the IC50 in data set [3] was 6 µM; in the data set “in vitro”, more than 25 µM.

The compound `CCC[C@@H](CCO)Nc1nc(N)nc2cnn(Cc3ccc(CNC4CCOCC4)nc3OC)c12` returned an IC50 in the data set “in vitro” of more than 25 µM.

Turning to `CCC[C@@H](CCO)Nc1nc(N)nc2cnn(Cc3ccc(CNC4CCOCC4)c4cccnc34)c12`, the Stability in data set [1] and in data set [2] was 56% each time. Also, the 50% inhibitory concentration (IC50) is more than 50 µM in data set [3] and more than 25 µM in “in vitro”.

Turning to `CCC[C@@H](CCO)Nc1nc(N)nc2cnn(Cc3ccc(CNC4CCOCC4)cc3)c12`, the Stability is 91% in data set [1] and 90% in data set [2]. Also, the concentration giving a half-maximal response (EC50) at Toll-like receptor 7 [4] is more than 5 µM. Also, the half-inhibitory concentration (IC50) in data set [3] is more than 50 µM; in the data set “in vitro”, more than 25 µM.

Turning to `CCCCNc1nc(N)nc2cnn(Cc3ccc(CN4CCNCC4)cc3OC)c12`, the Stability in data set [1] is listed as 60%; in data set [2] it was 83%.

As for `CCCCNc1nc(N)nc2cnn(Cc3ccc(CN4CCCCC4)cc3OC)c12`, the Stability worked out at 2% in data set [1] and 33% in data set [2]. For the same compound, on Toll-like receptor 7 [4], the EC50 came to 0.225 µM.

Compound `CCCCNc1nc(N)nc2cnn(Cc3ccccc3OC)c12` came in with a concentration giving a half-maximal response (EC50) on Toll-like receptor 7 [5] of 0.384 µM.

As for `CC[C@@H](CCO)Nc1nc(N)nc2cnn(Cc3ccc(CNC4CCOCC4)cc3OC)c12`, the Stability in data set [1] is recorded as 84%; in data set [2] it was 83%. For the same compound, the values for the half-maximal inhibitory concentration (IC50) (against Toll-like receptor 7 [4]; in data set [3]; in “in vitro”) were 1.25 µM, more than 50 µM and more than 25 µM, respectively.

Regarding `CCCCNc1nc(N)nc2cnn(Cc3ccc(Cn4ccnc4)cc3OC)c12`, the Stability in data set [1] was found to be 26%; in data set [2], 1%.

On Toll-like receptor 7 [5], `CCCCNc1nc(N)nc2ncn(Cc3ccccc3)c12` came in with an EC50 of more than 5 µM.

Turning to `CCCCNc1nc(N)nc2cnn(Cc3ccc(CNC4CCOCC4)cc3OC)c12`, the values for the Stability in data set [1] and in data set [2] were 25% and 68%, respectively. The compound also had an EC50 on Toll-like receptor 7 [4] of 0.453 µM. The same compound displayed a 50% inhibitory concentration (IC50) in “in vitro” of 22 µM.

Turning to `CCC[C@@H](CCO)Nc1nc(N)nc2cnn(Cc3ccc(CNC4CCOCC4)cc3F)c12`, the figures for the Stability in data set [1] and in data set [2] were 91% and 66%, respectively. For the same compound, the IC50 in data set [3] was more than 50 µM; in the data set “in vitro”, more than 25 µM.
